{
  "source": "patent US20190030023A1",
  "about": "“METHODS FOR TREATING CANCER” (X4 Pharmaceuticals, Inc., priority 2016, published 2019)",
  "key": {"[1]": {"test_system": "circulating white blood cells (WBCs)", "settings": "Phase 1 and 2a trials, oral administration; cited from earlier work"}, "[2]": {"settings": "Phase 1 and 2a trials; suggests high tissue penetrance; cited from earlier work"}, "in vivo": {"assay": "in vivo", "settings": "terminal half-life", "experimental": "In certain embodiments, the dosage composition may be provided twice a day in divided dosage, approximately 12 hours apart. In other embodiments, the dosage composition may be provided once daily. […] Dosage for oral administration may be from about 100 mg to about 1200 mg once or twice per day."}, "[3]": {"test_system": "murine models of melanoma, renal cell carcinoma, and ovarian cancer", "settings": "cited from earlier work"}, "[4]": {"assay": "Solubility of X4P-001 by pH and in water", "type": "physicochemical", "settings": "for solubility: aqueous buffer"}, "[5]": {"test_system": "unresectable or metastatic melanoma", "settings": "Phase 3 trial, P<0.001 pembrolizumab vs ipilimumab; cited from earlier work"}, "[6]": {"test_system": "pancreatic adenocarcinoma", "settings": "cited from earlier work"}},
  "data": [
    {"molecule": "NCCCCN(Cc1nc2ccccc2[nH]1)[C@H]1CCCc2cccnc21", "note": "[X4P-001]", "values": [
      {"measurement": "pharmacodynamic activity: changes in circulating white blood cells (WBCs)", "setting": "[1]", "value": "dose- and concentration-related changes"},
      {"measurement": "volume of distribution (VL)", "setting": "[2]", "value": "high"},
      {"measurement": "half-life", "setting": "in vivo; approximate value", "value": "~14.5", "unit": "h"},
      {"measurement": "half-life", "setting": "in vivo; range", "value": "12 to 24", "unit": "h"},
      {"measurement": "anti-tumor activity, including decreased metastasis and increased overall survival", "setting": "[3]", "value": "significant anti-tumor activity"},
      {"measurement": "solubility", "setting": "[4]; pH 9.0 (sparingly soluble)", "value": 10.7, "unit": "mg/mL"},
      {"measurement": "solubility", "setting": "[4]; pH 10.0 (slightly soluble)", "value": 2, "unit": "mg/mL"},
      {"measurement": "solubility", "setting": "[4]; pH range 3.0 to 8.0 (freely soluble)", "value": "> 100", "unit": "mg/mL"},
      {"measurement": "solubility in water", "setting": "[4]; water", "value": "only slightly soluble"}
    ]},
    {"molecule": "Pembrolizumab: humanized IgG4 kappa monoclonal antibody that blocks the interaction between PD-1 and its ligands, PD-L1 and PD-L2", "values": [
      {"measurement": "objective response rate", "setting": "[5]", "value": 33, "unit": "%"}
    ]},
    {"molecule": "c1cc(CN2CCCNCCNCCCNCC2)ccc1CN1CCCNCCNCCCNCC1", "note": "[Plerixafor]", "values": [
      {"measurement": "T-cell accumulation among the cancer cells", "setting": "[6]; CXCR4 antagonist alone", "value": "induced rapid T-cell accumulation"},
      {"measurement": "tumor growth", "setting": "[6]; in combination with anti-PD-L1", "value": "synergistically decreased tumor growth"},
      {"measurement": "anti-tumor activity, including decreased metastasis and increased overall survival", "setting": "[3]", "value": "significant anti-tumor activity"}
    ]},
    {"molecule": "ipilimumab: anti-CTLA-4 antibody", "values": [
      {"measurement": "objective response rate", "setting": "[5]", "value": 12, "unit": "%"}
    ]}
  ]
}
